Earlier results in paper PMC3745299 (Journal of medicinal chemistry, 2013).
Like-named read-outs stand apart in the source and are kept apart here.

How the values were obtained:
[1] = tested on: human pregnane X receptor (hPXR); conditions: below 100 μM
[2] = tested on: Mycobacterium tuberculosis
Cyp450 [3] = conditions: rat
Cyp450 [4] = conditions: dog

Question: Which results are given for CO[C@H]1/C=C/O[C@@]2(C)Oc3c(C)c(O)c4c(=O)c(c5oc6cc(N7CCN(CC(C)C)CC7)cc(O)c6nc-5c4c3C2=O)NC(=O)/C(C)=C\C=C\[C@H](C)[C@H](O)[C@@H](C)[C@@H](O)[C@@H](C)[C@H](OC(C)=O)[C@@H]1C [bxRIF2a, rifalazil]?
Answer: hPXR activation in vitro [1]: essentially no hPXR activation; MIC90 [2]: < 4 nM; Cyp450 induction activity (Cyp450 [3]): dramatically reduced; Cyp450 induction activity (Cyp450 [4]): dramatically reduced
